Reference: patent US20140163456A1, “METHOD OF PRODUCING SUBSTANCES WITH SUPERSATURATED GAS, TRANSDERMAL DELIVERY DEVICE THEREOF, AND USES THEREOF” (INVISIDERM, LLC, priority 2011, published 2014)

Experiments:
individuals [1] = assay: Measurement of blood flow: Skin Perfusion Pressure (SensiLase System) on right toe, capillary blood flow change; assay type: in vivo, human
Procedure: (§1) The treatment was administered by having an individual insert the left thumb into the open-ended delivery outlet of a device disclosed herein creating a seal. The digit will be “bathed” for five minutes with a vapor including supersaturated dissolved molecular carbon dioxide from a canister providing pure, medical-grade carbon dioxide. Nine individuals were examined.
Tissue perfusion in distal arteries was accessed using a SensiLase System (a FDA-cleared device) and measuring Skin Perfusion Pressure (SPP) and Pulse Volume Recording (PVR). SPP is a pressure measurement in mmHg that assess local blood perfusion in capillaries using a laser Doppler to measure reactive hyperemia, which reflects microcirculation for distal arterial blood flow. PVR is a measurement of plethysmography to assess changes in arterial blood volume. A change in capillary blood flow (CBF) is calculated by determining the change in SPP values over time. For this study, the CBF values of all post-treatment measurements were calculated by dividing the post-treatment SPP value by the pre-treatment SPP value. A measurement of SPP was performed on the individual's right toe at six time points 1) 5 minutes before treatment (pre-treatment); 2) 5 minutes post-treatment; 3) 30 minutes post-treatment; 4) 60 minutes post-treatment; 5) 120 minutes post-treatment; and 6) 240 minutes post-treatment.

individuals [2] = assay: Measurement of brachial diastolic and systolic blood pressure on right upper arm; assay type: in vivo, human
Procedure: as §1
To conduct this study, individuals from the study described in Example 1 had there blood pressure taken. A measurement of both brachial diastolic blood pressure and systolic blood pressure was performed on the individual's right upper arm at six time points 1) 5 minutes before treatment (pre-treatment); 2) 5 minutes post-treatment; 3) 30 minutes post-treatment; 4) 60 minutes post-treatment; 5) 120 minutes post-treatment; and 6) 240 minutes post-treatment.

[3] = nine individuals, 5 to 240 min post-treatment
[4] = over the course of the entire 240 minute study

## O=C=O [molecular carbon dioxide, carbon dioxide]
Individuals [1]; [3]
  blood flow: increases blood flow in all individuals examined at some point during the time period measured
Individuals [1]; [4]
  sustained increases in capillary blood flow: six of the nine patients showed sustained increases in capillary blood flow
Individuals [2]; [3]
  blood pressure: decreased blood pressure in all individuals examined at some point during the time period measured
Individuals [2]; [4]
  diastolic and systolic blood pressure: Seven of the nine individuals studied showed decreased diastolic and systolic blood pressure
